Legend:
Assay type in all cases: cell-based
human TRPM7 = human TRPM7 (Homo sapiens, UniProt Q96QT4); experiment: whole-cell patch clamp, current at +[…] mV
TRPM7 Δ-kinase = TRPM7 Δ-kinase (Homo sapiens, UniProt Q96QT4); experiment: whole-cell patch clamp, current at +[…] mV
human TRPM6 (hTRPM6) = human TRPM6 (hTRPM6) (Homo sapiens, UniProt Q9BX84); experiment: whole-cell patch clamp, current at +[…] mV, […] s; conditions: intracellular iodide 154 mM; no intracellular Mg2+; pH 7.2
Sequence of human TRPM6 (hTRPM6) (Q9BX84 whole entry): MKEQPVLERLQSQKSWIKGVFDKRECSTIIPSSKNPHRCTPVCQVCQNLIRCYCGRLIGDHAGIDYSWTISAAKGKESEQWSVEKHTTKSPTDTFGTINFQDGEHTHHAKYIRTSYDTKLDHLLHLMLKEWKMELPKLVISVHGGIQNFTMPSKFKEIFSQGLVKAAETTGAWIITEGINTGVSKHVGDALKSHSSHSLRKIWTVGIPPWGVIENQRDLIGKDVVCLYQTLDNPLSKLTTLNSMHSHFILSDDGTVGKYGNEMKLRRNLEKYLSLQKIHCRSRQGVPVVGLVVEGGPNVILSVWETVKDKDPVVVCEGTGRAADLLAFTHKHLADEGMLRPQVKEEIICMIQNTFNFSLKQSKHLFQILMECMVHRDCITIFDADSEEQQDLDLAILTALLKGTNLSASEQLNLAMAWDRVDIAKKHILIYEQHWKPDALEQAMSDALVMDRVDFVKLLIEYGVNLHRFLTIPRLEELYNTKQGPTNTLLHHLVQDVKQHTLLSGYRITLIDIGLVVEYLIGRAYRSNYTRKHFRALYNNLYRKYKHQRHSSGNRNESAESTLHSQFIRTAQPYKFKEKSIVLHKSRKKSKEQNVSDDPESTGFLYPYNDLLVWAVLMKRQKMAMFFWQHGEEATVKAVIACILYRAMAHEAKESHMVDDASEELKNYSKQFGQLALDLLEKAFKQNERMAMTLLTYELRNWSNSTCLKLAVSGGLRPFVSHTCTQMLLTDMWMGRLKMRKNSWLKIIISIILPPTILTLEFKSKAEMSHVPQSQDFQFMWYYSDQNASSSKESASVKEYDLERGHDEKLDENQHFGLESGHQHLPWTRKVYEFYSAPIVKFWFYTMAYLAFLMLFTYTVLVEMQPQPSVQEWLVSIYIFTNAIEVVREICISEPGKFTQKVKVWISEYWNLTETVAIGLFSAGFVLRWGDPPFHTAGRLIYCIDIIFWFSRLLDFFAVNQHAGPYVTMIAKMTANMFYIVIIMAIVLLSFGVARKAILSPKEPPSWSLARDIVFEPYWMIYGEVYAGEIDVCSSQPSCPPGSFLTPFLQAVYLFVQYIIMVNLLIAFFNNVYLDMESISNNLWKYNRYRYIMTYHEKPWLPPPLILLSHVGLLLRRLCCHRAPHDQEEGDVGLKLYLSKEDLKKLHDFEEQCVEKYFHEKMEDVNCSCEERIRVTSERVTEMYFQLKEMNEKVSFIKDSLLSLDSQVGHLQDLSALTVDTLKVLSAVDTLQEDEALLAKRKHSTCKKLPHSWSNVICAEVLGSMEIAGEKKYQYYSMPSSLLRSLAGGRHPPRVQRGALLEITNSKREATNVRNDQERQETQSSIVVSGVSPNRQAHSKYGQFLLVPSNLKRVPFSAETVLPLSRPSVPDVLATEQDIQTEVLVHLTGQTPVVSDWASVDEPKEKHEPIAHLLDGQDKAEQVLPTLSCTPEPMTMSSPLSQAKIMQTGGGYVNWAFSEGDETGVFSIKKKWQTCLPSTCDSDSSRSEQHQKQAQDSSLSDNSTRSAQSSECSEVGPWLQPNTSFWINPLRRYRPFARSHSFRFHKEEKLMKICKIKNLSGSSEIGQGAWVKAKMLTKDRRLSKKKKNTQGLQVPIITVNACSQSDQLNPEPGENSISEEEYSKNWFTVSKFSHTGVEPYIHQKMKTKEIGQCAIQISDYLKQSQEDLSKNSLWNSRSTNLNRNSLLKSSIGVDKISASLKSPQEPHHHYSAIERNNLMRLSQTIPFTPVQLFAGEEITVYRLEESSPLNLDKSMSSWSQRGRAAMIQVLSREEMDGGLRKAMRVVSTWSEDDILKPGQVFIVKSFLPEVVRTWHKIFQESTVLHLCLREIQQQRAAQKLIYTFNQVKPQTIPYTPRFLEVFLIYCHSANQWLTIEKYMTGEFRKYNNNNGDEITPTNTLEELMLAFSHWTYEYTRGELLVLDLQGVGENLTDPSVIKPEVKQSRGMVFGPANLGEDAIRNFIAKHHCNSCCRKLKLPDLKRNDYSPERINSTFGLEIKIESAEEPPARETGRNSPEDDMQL

Sequence of human TRPM7 (Q96QT4 whole entry): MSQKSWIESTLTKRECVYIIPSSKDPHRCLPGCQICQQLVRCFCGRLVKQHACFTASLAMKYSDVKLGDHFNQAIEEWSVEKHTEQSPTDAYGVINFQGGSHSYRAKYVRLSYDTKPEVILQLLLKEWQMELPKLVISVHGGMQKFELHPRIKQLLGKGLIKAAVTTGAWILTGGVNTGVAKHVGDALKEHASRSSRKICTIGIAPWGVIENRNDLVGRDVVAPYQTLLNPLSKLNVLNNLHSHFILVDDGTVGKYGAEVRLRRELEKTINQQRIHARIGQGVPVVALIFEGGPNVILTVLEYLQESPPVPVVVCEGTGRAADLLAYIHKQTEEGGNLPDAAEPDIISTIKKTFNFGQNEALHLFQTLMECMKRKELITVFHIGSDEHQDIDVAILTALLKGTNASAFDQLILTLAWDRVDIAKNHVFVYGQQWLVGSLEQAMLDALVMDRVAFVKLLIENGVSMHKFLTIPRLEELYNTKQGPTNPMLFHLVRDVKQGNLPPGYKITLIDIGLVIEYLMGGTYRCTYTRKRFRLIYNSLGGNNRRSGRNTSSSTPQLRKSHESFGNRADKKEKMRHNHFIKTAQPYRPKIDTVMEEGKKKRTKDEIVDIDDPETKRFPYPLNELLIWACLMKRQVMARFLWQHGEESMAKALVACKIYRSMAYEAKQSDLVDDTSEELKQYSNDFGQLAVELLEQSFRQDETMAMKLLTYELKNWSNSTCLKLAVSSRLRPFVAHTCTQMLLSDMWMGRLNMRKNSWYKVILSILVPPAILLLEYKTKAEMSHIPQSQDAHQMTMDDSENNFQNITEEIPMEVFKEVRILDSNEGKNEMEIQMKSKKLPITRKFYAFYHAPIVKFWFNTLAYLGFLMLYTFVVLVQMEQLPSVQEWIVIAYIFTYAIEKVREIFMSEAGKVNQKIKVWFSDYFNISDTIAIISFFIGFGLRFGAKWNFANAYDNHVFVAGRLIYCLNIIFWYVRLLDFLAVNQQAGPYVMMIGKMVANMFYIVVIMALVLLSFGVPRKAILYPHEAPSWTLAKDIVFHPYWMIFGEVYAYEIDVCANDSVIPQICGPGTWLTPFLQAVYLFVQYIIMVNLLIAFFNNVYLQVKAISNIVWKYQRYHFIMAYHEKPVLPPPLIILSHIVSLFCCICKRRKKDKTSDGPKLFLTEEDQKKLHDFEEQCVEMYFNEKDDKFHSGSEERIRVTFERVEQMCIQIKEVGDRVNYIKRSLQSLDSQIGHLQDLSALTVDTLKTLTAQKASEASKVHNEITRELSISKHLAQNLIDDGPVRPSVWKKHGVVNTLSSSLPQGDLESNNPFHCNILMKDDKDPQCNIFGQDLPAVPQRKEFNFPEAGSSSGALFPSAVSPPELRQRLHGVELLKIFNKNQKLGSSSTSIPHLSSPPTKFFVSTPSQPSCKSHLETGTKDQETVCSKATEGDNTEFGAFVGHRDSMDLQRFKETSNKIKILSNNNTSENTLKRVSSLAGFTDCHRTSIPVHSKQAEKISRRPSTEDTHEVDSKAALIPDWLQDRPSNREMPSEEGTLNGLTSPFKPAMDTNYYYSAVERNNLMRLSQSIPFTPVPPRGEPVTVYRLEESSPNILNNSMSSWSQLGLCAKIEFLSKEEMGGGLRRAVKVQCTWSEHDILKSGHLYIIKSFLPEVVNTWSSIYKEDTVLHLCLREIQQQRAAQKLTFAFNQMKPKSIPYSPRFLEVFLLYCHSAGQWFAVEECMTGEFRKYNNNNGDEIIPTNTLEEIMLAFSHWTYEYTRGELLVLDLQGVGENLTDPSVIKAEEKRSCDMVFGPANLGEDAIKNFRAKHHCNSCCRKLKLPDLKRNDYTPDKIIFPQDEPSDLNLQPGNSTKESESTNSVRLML

Row | Structure (SMILES) | IC50 (human TRPM7) [mM] | IC50 (TRPM7 Δ-kinase) [mM] | % inhibition at 154 mM (human TRPM6 (hTRPM6)) [%]
1 | Br [bromide] | 88 ± 6 |  | 
2 | Cl [chloride] | 99 ± 9 |  | 
3 | I [iodide] |  | 31 ± 3 | 52
